Measurements taken from ChEMBL document CHEMBL5518179, “Resveratrol-derived inhibitors of the E3 ubiquitin ligase PELI1 inhibit the metastasis of triple-negative breast cancer” (Eur J Med Chem, 2024).

Target: T1, E3 ubiquitin-protein ligase pellino homolog 1 (Homo sapiens, UniProt Q96FA3)
T1 sequence (Q96FA3 whole entry): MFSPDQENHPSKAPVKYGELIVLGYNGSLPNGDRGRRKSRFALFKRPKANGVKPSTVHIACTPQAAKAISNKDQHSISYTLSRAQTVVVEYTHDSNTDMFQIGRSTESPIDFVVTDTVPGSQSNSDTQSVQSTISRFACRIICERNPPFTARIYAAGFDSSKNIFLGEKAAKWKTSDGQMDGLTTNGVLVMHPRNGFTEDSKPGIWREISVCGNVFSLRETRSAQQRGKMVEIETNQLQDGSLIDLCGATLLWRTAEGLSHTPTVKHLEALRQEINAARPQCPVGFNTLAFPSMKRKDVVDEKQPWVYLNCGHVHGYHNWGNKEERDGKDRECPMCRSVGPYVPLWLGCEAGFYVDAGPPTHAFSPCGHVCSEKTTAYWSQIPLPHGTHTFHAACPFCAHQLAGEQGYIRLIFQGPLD
Assay: Binding affinity to PELI1 FHA domain (unknown origin) expressed in Escherichia coli BL21(DE3) competent cell measured after 1 min by fluorescence quenching assay; call rule not given here

| Compound | Kd (read-out: Kd) [µM] | Kd |
| --- | --- | --- |
| NC(=O)/C=C/c1ccc(O)c(/C=C/c2cc(O)cc(O)c2)c1 | 55.7 | – |
| C/C=C/C(=O)Nc1ccc(O)c(/C=C/c2cc(O)cc(O)c2)c1 | 64.3 | – |
| CN(C)C(=O)/C=C/c1cc(O)ccc1/C=C/c1cc(O)cc(O)c1 | 104 | – |
| O=c1ccc2ccc(O)c(O)c2o1 [DAPHNETIN] | 336 | – |
| O=C(/C=C/c1cc(O)ccc1/C=C/c1cc(O)cc(O)c1)N1CCCCC1 | 96.3 | – |
| C/C=C/C(=O)Nc1cc(/C=C/c2cc(O)cc(O)c2)ccc1O | 126 | – |
| CNC(=O)/C=C/c1ccc(O)c(/C=C/c2cc(O)cc(O)c2)c1 | 59.9 | – |
| CNC(=O)/C=C/c1ccccc1 | 212 | – |
| C/C=C/C(=O)Nc1cc(O)ccc1/C=C/c1cc(O)cc(O)c1 | 86.9 | – |
| COc1cc(C=O)ccc1O [VANILLIN] | 228 | – |
| NC(=O)/C=C/c1cc(O)ccc1/C=C/c1cc(O)cc(O)c1 | 40.1 | – |
| O=C(Nc1ccccc1)c1cccnc1 [NICOTINANILIDE] | 336 | – |
| O=C(/C=C/c1ccc(O)c(/C=C/c2cc(O)cc(O)c2)c1)N1CCCCC1 | 26.9 | – |
| CCCNC(=O)/C=C/c1cc(O)ccc1/C=C/c1cc(O)cc(O)c1 | 70.1 | – |
| O=C(/C=C/c1cc(/C=C/c2cc(O)cc(O)c2)ccc1O)N1CCCCC1 | 37.9 | – |
| CNC(=O)/C=C/c1cc(O)ccc1/C=C/c1cc(O)cc(O)c1 | 39.3 | – |
| CCCNC(=O)/C=C/c1cc(/C=C/c2cc(O)cc(O)c2)ccc1O | 44.4 | – |

Further lines, results first:

| Kd (read-out: Kd) [µM] | Kd | Compound |
| --- | --- | --- |
| 51.5 | – | O=C(/C=C/c1ccccc1)Nc1cc(O)ccc1/C=C/c1cc(O)cc(O)c1 |
| – | Not Active | Oc1cc(O)cc(/C=C/c2ccc(-c3cccc(O)c3)cc2)c1 |
| – | Not Active | O=C(/C=C/c1ccccc1)Nc1ccc(/C=C/c2cc(O)cc(O)c2)cc1 |
| – | Not Active | NC(=O)/C=C/c1ccc(/C=C/c2cc(O)cc(O)c2)cc1 |
| 125 | – | Oc1ccc(/C=C/c2cc(O)cc(O)c2)cc1 [RESVERATROL] |
| – | Not Active | O=C(/C=C/c1ccccc1)Nc1ccc(O)c(/C=C/c2cc(O)cc(O)c2)c1 |
| – | Not Active | Oc1cc(O)cc(/C=C/c2ccc(-c3ccsc3)cc2)c1 |
| – | Not Active | CCCNC(=O)/C=C/c1ccc(/C=C/c2cc(O)cc(O)c2)cc1 |
| – | Not Active | O=C(/C=C/c1ccc(/C=C/c2cc(O)cc(O)c2)cc1)N1CCCCC1 |
| – | Not Active | Oc1cc(O)cc(/C=C/c2ccc(-c3ccccc3)cc2)c1 |
| – | Not Active | Oc1cc(O)cc(/C=C/c2ccc(-c3ccoc3)cc2)c1 |
| – | Not Active | Oc1ccc(-c2ccc(/C=C/c3cc(O)cc(O)c3)cc2)cc1 |
| 42.3 | – | CNC(=O)/C=C/c1cc(/C=C/c2cc(O)cc(O)c2)ccc1O |
| – | Not Active | CN(C)C(=O)/C=C/c1ccc(/C=C/c2cc(O)cc(O)c2)cc1 |
| – | Not Active | C/C=C/C(=O)Nc1ccc(/C=C/c2cc(O)cc(O)c2)cc1 |
| 124 | – | O=C(/C=C/c1ccccc1)Nc1cc(/C=C/c2cc(O)cc(O)c2)ccc1O |
| – | Not Active | CNC(=O)/C=C/c1ccc(/C=C/c2cc(O)cc(O)c2)cc1 |
| – | Not Active | O=[N+]([O-])c1cccc(-c2ccc(/C=C/c3cc(O)cc(O)c3)cc2)c1 |
